One assay relates to keratinocytes in culture. The experiment in a line: IL-22-induced rise in cAMP within keratinocytes in culture. Type of assay: cell-based. The settings on record: IL-22 stimulated. The text has this:
To address the role of sAC in keratinocyte proliferation we studied IL-22-induced psoriasis pathogenesis as a model system. IL-22 induced a rise in cAMP within keratinocytes in culture. This cAMP rise was inhibited by KH7 (a specific inhibitor of sAC).

The subject of assay [1] is C57B1/6 mouse ears. The experiment in a line: IL-22-induced acanthosis in mouse ears, subcutaneous co-injection of IL-22+KH7. Type of assay: in vivo. The protocol:
FIG. 1 Tissue sections stained with H/E of C57B1/6 mouse ears following injection with saline, IL-22 and IL-22+KH7 (a sAc inhibitor). Slides were visualized on a standard pathology microscope. Bar graph in lower right corner represents the average±SEM thickness of epidermis in each of three conditions listed in the previous sentence. a student t test was performed with p value listed.
IL-22 protein was purchased from Preprotech and reconstituted in sterile water as per the manufacturer's instructions. Concentrated IL-22 was diluted to a working concentration of 500 ng/20 μL in sterile saline alone, or with KH7 at 100 μM. These solutions were prepared fresh each day they were used. C57B1/6 mice greater than 2 months in age, kept under a normal light/dark cycle, and fed normal chow were injected subcutaneously in their left ear with 20 μL of IL-22 alone and in their right ear with 20 μL of IL-22+KH7 every other day for two weeks, or were injected subcutaneously in their left and right ear with 20 μL of IL-22 and then treated topically (54) following each injection with vehicle on the left ear and KH7 on the right ear every other day for two weeks. As a control C57B1/6 mice were injected with 20 μL of IL-22 in their left ear and 20 μL of sterile saline alone in their right ear every other day for two weeks. After two weeks the ears were removed, formalin fixed, paraffin embedded, sectioned, and stained with simple hematoxylin and eosin. Epidermal height was measured from the bottom of the basal cell layer to the top of the granular cell layer using a microscope and a micrometer. Three to four measurements were taken along the ear and multiple sections were measured for each condition. In addition, the total number of acanthotic ear sections were recorded as an indication of the distribution of acanthosis.

In assay [2] the test system is C57B1/6 mouse ears. The experiment in a line: IL-22-induced acanthosis in mouse ears, topical application of KH7. Format: in vivo. The settings on record: ear painted with 100 micromolar KH7 in DMSO one hour after IL-22 injection, every other day for two weeks, three mice, ANOVA P<0.05 IL-22 vs IL-22+KH7, not different from control. As to the method: FIG. 11. Topical application of KH7 inhibits IL-22-induced acanthosis As before C57B1/6 mouse ears were injected with normal saline (control) or 500 ng of IL-22 in 20 microliters of normal saline (IL-22). After incubation for one hour the left ear was painted with 5 microliters of DMSO and the right ear was painted with 100 micromolar KH7 in DMSO (IL-22+KH7). This was repeated every other day for two weeks. The ears were then removed and the total area of acanthosis of each ear was calculated and represented as a % of acanthosis relative to control ears. […]
IL-22 protein was purchased from Preprotech and reconstituted in sterile water as per the manufacturer's instructions. […] Epidermal height was measured from the bottom of the basal cell layer to the top of the granular cell layer using a microscope and a micrometer. Three to four measurements were taken along the ear and multiple sections were measured for each condition. In addition, the total number of acanthotic ear sections were recorded as an indication of the distribution of acanthosis.
Topical application of KH7 inhibits IL-22-induced acanthosis. […] The ears were then removed and the total area of acanthosis of each ear was calculated and represented as a % of acanthosis relative to control ears. […]

For the compound `CC(Sc1nc2ccccc2[nH]1)C(=O)N/N=C/c1cc(Br)ccc1O` (centres unmarked) [KH7], the “IL-22-induced cAMP rise within keratinocytes” value in the assay with keratinocytes in culture is on record as “inhibited”. Moreover, in the assay on C57B1/6 mouse ears [1] (IL-22 500 ng/20 μL with KH7 at 100 μM, every other day for two weeks), the “IL-22-induced acanthosis (thickness of epidermis)” value is listed as “completely blocked”. Further, the IL-22-induced parakeratosis entry in the assay with C57B1/6 mouse ears [1] (IL-22 with KH7, every other day for two weeks) was “completely blocked”. Further, in the assay with C57B1/6 mouse ears [1] (injection of IL-22+KH7, H/E sections), the “IL-22-induced recruitment of immunocytes (ie T cells)” value is “completely blocked”. Further, the “IL-22-induced acanthosis (total area of acanthosis, % relative to control ears)” value with C57B1/6 mouse ears [2] is on record as “inhibits”.

The values are drawn from patent US9388250B2, “Method to treat psoriasis and other hyperproliferative skin disorders” (CORNELL UNIVERSITY, priority 2009, dated 2016).
